Measurements: patent US20250177566A1, “USE OF CHEMICAL EPIGENETIC MODIFIERS TO MODULATE GENE EXPRESSION” (The University of North Carolina at Chapel Hill, priority 2022, published 2025)
Where two headings read alike, the source gives them in different places.

How the values were obtained:
[1] = system: TRE3G-GFP reporter gene; assay: TRE3G-GFP reporter gene activation in HCT116, dCas9 + MS2-FKBP*x2 (F36V) system, flow cytometry; assay type: cell-based, human; parameters: fold change, GFP: reference not given here; details: for fold change, GFP (Treated vs Non-Treated): FIG. 1E, 48 hours; for fold change, GFP: 48 hrs
[2] = system: CXCR4; assay: CXCR4 mRNA activation in HCT116 stably expressing dCas9 and MS2-FKBP*x2, qRT-PCR; assay type: cell-based, human; details: for fold change, CXCR4 mRNA (CEM Treated vs Non-Treated): 48 hrs; for fold change, CXCR4 mRNA (CXCR4 gRNA vs NT gRNA): FIG. 3B; for fold change, CXCR4 mRNA (CXCR4 gRNA vs NT gRNA) / fold change, CXCR4 mRNA (washout vs AP1867 competition) / fold change, CXCR4 mRNA (Compare to 0 h): CEM207 25 nM; for fold change, CXCR4 mRNA (washout vs AP1867 competition): FIG. 3D; for fold change, CXCR4 mRNA (Compare to 0 h): FIG. 7A
Method in brief: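 HCT116 cells stably expressing dCas9 and MS2-FKBP*x2 with CXCR4 gRNA were treated with CEMs (screen at 5 nM; 1–50 nM range). CXCR4 mRNA measured by one-step qRT-PCR after 48 h, or at 12–96 h in time course. Reversibility tested by washout after 24 h, optionally with 20 μM AP1867.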

[3] = system: CXCR4; assay: CXCR4 mRNA activation in HCT116 stably expressing dCas9 and MS2-FKBPx2 (WT-FKBP), qRT-PCR; assay type: cell-based, human; details: FIG. 6, WT FKBP system, 48 hrs
[4] = system: TRE3G-GFP reporter gene; details: WT FKBP (MS2-FKBPx2), 48 hrs
Protocol: HCT116 cells were transfected with TRE3G-GFP, dCas9, MS2-FKPB*x2, and TRE3G gRNA or NT gRNA. After 48 hrs of 10 nM SLF*-CEMa treatment, flow cytometry was performed and mean fluorescent value was collected. […] TRE3G-GFP, dCas9, MS2-FKBP*2, TRE3G gRNA or NT gRNA were transfected into HCT116 cells. The media was changed to media with 5 nM CEM207 together with 0 nM, 50 nM, 500 nM or 5000 nM of AP1867, respectively. After 48 hrs chemical exposure, flow cytometry was performed and the mean fluorescent value was measured in each group of cells. […] FIGS. 5D and 5E are dose curves of CEMa molecules activating the GFP reporter gene in HCT116 cells using WT FKBP and dCas9 as DNA binding module. HCT116 cells were transfected with dCas9, MS2-FKBPx2, TRE3G-GFP constructs, along with TRE3G gRNA or NT gRNA. Cells were treated with different concentrations of CEMa molecules for 48 hrs before flow cytometry was conducted. […] Error bars represent the standard deviation.
To better understand the activity of SLF*-CEMa in the WT FKBP-based GFP reporter assay, a similar dose-response assay was conducted in HCT116 cells transfected with dCas9 and MS2-FKBPx2 (FIGS. 1D and 1E).
Flow cytometry. All flow cytometry experiments were performed with Attune Nxt as previously described. […] Significance was determined by Student's t-test.

For `CC[C@H](C(=O)N1CCCC[C@H]1C(=O)O[C@H](CCc1ccc(OC)c(OC)c1)c1cccc(OCC(=O)NCCOCCOCCNC(=O)C[C@@H]2N=C(c3ccc(Cl)cc3)c3c(sc(C)c3C)-n3c(C)nnc32)c1)c1cc(OC)c(OC)c(OC)c1` [CEM207, (R)-1-(3-((14-((S)-4-(4-Chlorophenyl)-2,3,9-trimethyl-6H-thieno[3,2-f][1,2,4]triazolo[4,3-a][1,4]diazepin-6-yl)-2,13-dioxo-6,9-dioxa-3,12-diazatetradecyl)oxy)phenyl)-3-(3,4-dimethoxyphenyl) propyl(S)-1-((S)-2-(3,4,5-trimethoxyphenyl)butanoyl) piperidine-2-carboxylate], the “fold change, GFP (Treated vs Non-Treated)” value ([1]; TRE3G gRNA, 0.25 nM) was 2.0 fold, the “fold change, GFP (Treated vs Non-Treated)” value ([1]; TRE3G gRNA, 0.5 nM) was 9.1 fold and the “fold change, GFP (Treated vs Non-Treated)” value ([1]; TRE3G gRNA, 0.75 nM) was 11.5 fold. The “fold change, GFP (Treated vs Non-Treated)” value ([1]; TRE3G gRNA, 1 nM) was 12.8 fold, the “fold change, GFP (Treated vs Non-Treated)” value ([1]; TRE3G gRNA, 2.5 nM) was 20.6 fold and the “fold change, GFP (Treated vs Non-Treated)” value ([1]; TRE3G gRNA, 5 nM) was 24.0 fold. The “fold change, GFP (Treated vs Non-Treated)” value ([1]; TRE3G gRNA, 7.5 nM) was 22.5 fold, the “fold change, GFP (Treated vs Non-Treated)” value ([1]; TRE3G gRNA, 10 nM) was 21.4 fold and the “fold change, GFP (Treated vs Non-Treated)” value ([1]; TRE3G gRNA, 25 nM) was 21.5 fold. For the same compound, the “fold change, GFP (Treated vs Non-Treated)” value ([1]; TRE3G gRNA, 50 nM) was 22.3 fold, the “fold change, GFP (Treated vs Non-Treated)” value ([1]; TRE3G gRNA, 75 nM) was 22.5 fold and the “fold change, GFP (Treated vs Non-Treated)” value ([1]; TRE3G gRNA, 100 nM) was 21.9 fold. The “fold change, GFP” value ([1]; FIG. 5A, NT gRNA, 10 nM) was 0.3 fold, the “fold change, GFP” value ([1]; FIG. 5A, TRE3G gRNA, 10 nM) was 12.0 fold and the “fold change, GFP” value ([1]; FIG. 5C, NT gRNA, 0.25 nM) was 1.1 fold. For the same compound, the “fold change, GFP” value ([1]; FIG. 5C, NT gRNA, 0.5 nM) was 1.1 fold, the “fold change, GFP” value ([1]; FIG. 5C, NT gRNA, 0.75 nM) was 1.1 fold and the “fold change, GFP” value ([1]; FIG. 5C, NT gRNA, 1 nM) was 1.1 fold. For the same compound, the “fold change, GFP” value ([1]; FIG. 5C, NT gRNA, 2.5 nM) was 1.2 fold, the “fold change, GFP” value ([1]; FIG. 5C, NT gRNA, 5 nM) was 1.5 fold and the “fold change, GFP” value ([1]; FIG. 5C, NT gRNA, 7.5 nM) was 1.5 fold. The “fold change, GFP” value ([1]; FIG. 5C, NT gRNA, 10 nM) was 1.4 fold, the “fold change, GFP” value ([1]; FIG. 5C, NT gRNA, 25 nM) was 1.6 fold and the “fold change, GFP” value ([1]; FIG. 5C, NT gRNA, 50 nM) was 1.6 fold. For the same compound, the “fold change, GFP” value ([1]; FIG. 5C, NT gRNA, 75 nM) was 1.5 fold, the “fold change, GFP” value ([1]; FIG. 5C, NT gRNA, 100 nM) was 1.5 fold and the “fold change, CXCR4 mRNA (CEM Treated vs Non-Treated)” value ([2]; FIG. 2D, CXCR4 gRNA, 0.5 nM) was 2.5 fold. For the same compound, the “fold change, CXCR4 mRNA (CEM Treated vs Non-Treated)” value ([2]; FIG. 2D, CXCR4 gRNA, 1 nM) was 7.4 fold, the “fold change, CXCR4 mRNA (CEM Treated vs Non-Treated)” value ([2]; FIG. 2D, CXCR4 gRNA, 5 nM) was 28.2 fold and the “fold change, CXCR4 mRNA (CEM Treated vs Non-Treated)” value ([2]; FIG. 2D, CXCR4 gRNA, 25 nM) was 48.2 fold. The “fold change, CXCR4 mRNA (CEM Treated vs Non-Treated)” value ([2]; FIG. 2D, CXCR4 gRNA, 50 nM) was 34.6 fold, the “fold change, CXCR4 mRNA (CEM Treated vs Non-Treated)” value ([2]; FIG. 2D, NT gRNA, 0.5 nM) was 1.17 fold and the “fold change, CXCR4 mRNA (CEM Treated vs Non-Treated)” value ([2]; FIG. 2D, NT gRNA, 1 nM) was 0.77 fold. For the same compound, the “fold change, CXCR4 mRNA (CEM Treated vs Non-Treated)” value ([2]; FIG. 2D, NT gRNA, 5 nM) was 1.47 fold, the “fold change, CXCR4 mRNA (CEM Treated vs Non-Treated)” value ([2]; FIG. 2D, NT gRNA, 25 nM) was 2.21 fold and the “fold change, CXCR4 mRNA (CEM Treated vs Non-Treated)” value ([2]; FIG. 2D, NT gRNA, 50 nM) was 1.88 fold. For the same compound, the “CXCR4 activation compared to dCas9-p300” value ([2]; FIG. 2D, concentrations above 5 nM) was “higher CXCR4 activation”, the “fold change, CXCR4 mRNA (CXCR4 gRNA vs NT gRNA)” value ([2]; 24 h) was 18.6 fold and the “fold change, CXCR4 mRNA (CXCR4 gRNA vs NT gRNA)” value ([2]; 48 h) was 13.1 fold. The “fold change, CXCR4 mRNA (CXCR4 gRNA vs NT gRNA)” value ([2]; 48 h AP1867 (washout with 20 μM AP1867 after 24 hrs)) was 8.3 fold, the “fold change, CXCR4 mRNA (CXCR4 gRNA vs NT gRNA)” value ([2]; 48 h wash (media washout after 24 hrs)) was 10.5 fold and the “fold change, CXCR4 mRNA (CXCR4 gRNA vs NT gRNA)” value ([2]; 72 h) was 6.8 fold. The “fold change, CXCR4 mRNA (CXCR4 gRNA vs NT gRNA)” value ([2]; 72 h AP1867 (washout with 20 μM AP1867 after 24 hrs)) was 4.2 fold, the “fold change, CXCR4 mRNA (CXCR4 gRNA vs NT gRNA)” value ([2]; 72 h wash (media washout after 24 hrs)) was 5.4 fold and the “fold change, CXCR4 mRNA (CXCR4 gRNA vs NT gRNA)” value ([2]; 96 h AP1867 (washout with 20 μM AP1867 after 24 hrs)) was 2.1 fold. For the same compound, the “fold change, CXCR4 mRNA (CXCR4 gRNA vs NT gRNA)” value ([2]; 96 h wash (media washout after 24 hrs)) was 4.3 fold, the “fold change, CXCR4 mRNA (washout vs AP1867 competition)” value ([2]; 48 h) was 1.2 fold and the “fold change, CXCR4 mRNA (washout vs AP1867 competition)” value ([2]; 72 h) was 2.4 fold. The “fold change, CXCR4 mRNA (washout vs AP1867 competition)” value ([2]; 96 h) was 0.57 fold, the “fold change, CXCR4 mRNA (Compare to 0 h)” value ([2]; NT gRNA, 12 h) was 0.1 fold and the “fold change, CXCR4 mRNA (Compare to 0 h)” value ([2]; NT gRNA, 24 h) was 0.6 fold. For the same compound, the “fold change, CXCR4 mRNA (Compare to 0 h)” value ([2]; NT gRNA, 48 h) was 0.7 fold, the “fold change, CXCR4 mRNA (Compare to 0 h)” value ([2]; NT gRNA, 48 h AP1867 (washout with 20 μM AP1867 after 24 hrs)) was 0.7 fold and the “fold change, CXCR4 mRNA (Compare to 0 h)” value ([2]; NT gRNA, 48 h wash (media washout after 24 hrs)) was 0.8 fold. The “fold change, CXCR4 mRNA (Compare to 0 h)” value ([2]; NT gRNA, 72 h) was 0.6 fold, the “fold change, CXCR4 mRNA (Compare to 0 h)” value ([2]; NT gRNA, 72 h AP1867 (washout with 20 μM AP1867 after 24 hrs)) was 0.3 fold and the “fold change, CXCR4 mRNA (Compare to 0 h)” value ([2]; NT gRNA, 72 h wash (media washout after 24 hrs)) was 0.4 fold. The “fold change, CXCR4 mRNA (Compare to 0 h)” value ([2]; NT gRNA, 96 h) was 0.5 fold, the “fold change, CXCR4 mRNA (Compare to 0 h)” value ([2]; NT gRNA, 96 h AP1867 (washout with 20 μM AP1867 after 24 hrs)) was 0.6 fold and the “fold change, CXCR4 mRNA (Compare to 0 h)” value ([2]; NT gRNA, 96 h wash (media washout after 24 hrs)) was 0.6 fold. For the same compound, the “CXCR4 mRNA expression after CEM washout in comparison to cells continuously treated” value ([2]; FIGS. 3C and 3D, CEM203 50 nM or CEM207 25 nM for 24 hours, then media exchange, all time points) was “significantly lowered CXCR4 mRNA expression”, the “time point of highest (peak) CXCR4 mRNA activation” value ([2]; time course 12, 24, 48, 72, 96 hrs, CXCR4 gRNA) was 24 h and the “fold change, CXCR4 mRNA (CXCR4 gRNA vs NT gRNA)” value ([3]; 50 nM) was 4.2 fold. For the same compound, the “fold change, CXCR4 mRNA (CXCR4 gRNA vs NT gRNA)” value ([3]; 200 nM) was 9.1 fold, the “fold change, GFP (Treated vs Non-Treated)” value ([4]; FIG. 5D, 10 nM) was 1.9 fold and the “fold change, GFP (Treated vs Non-Treated)” value ([4]; FIG. 5D, 25 nM) was 6.5 fold. The “fold change, GFP (Treated vs Non-Treated)” value ([4]; FIG. 5D, 50 nM) was 17.4 fold, the “fold change, GFP (Treated vs Non-Treated)” value ([4]; FIG. 5D, 100 nM) was 20.8 fold and the “fold change, GFP (Treated vs Non-Treated)” value ([4]; FIG. 5D, 200 nM) was 24.0 fold. For the same compound, the “fold change, GFP (Treated vs Non-Treated)” value ([4]; FIG. 5D, 400 nM) was 27.2 fold, the “fold change, GFP (Treated vs Non-Treated)” value ([4]; FIG. 5E, 10 nM) was 1.1 fold and the “fold change, GFP (Treated vs Non-Treated)” value ([4]; FIG. 5E, 25 nM) was 1.1 fold. The “fold change, GFP (Treated vs Non-Treated)” value ([4]; FIG. 5E, 50 nM) was 1.0 fold, the “fold change, GFP (Treated vs Non-Treated)” value ([4]; FIG. 5E, 100 nM) was 1.1 fold and the “fold change, GFP (Treated vs Non-Treated)” value ([4]; FIG. 5E, 200 nM) was 1.2 fold. The “fold change, GFP (Treated vs Non-Treated)” value ([4]; FIG. 5E, 400 nM) was 1.3 fold.
